Results as given in US8158623B2, “Heptacyclic compounds and the pharmaceutical uses thereof for preventing and treating diabetes and metabolic syndrome” (Shanghai Institute of Materia Medica Chinese Academy of …, priority 2007, dated 2012).
“And” between values parts separate entries of the source, which are not always exact repeats. Equal values may be shown once. “Also recorded” adds a separate entry of the source.

What was measured:
[1] = system: 3T3-L1 adipocytes; test: Glucose uptake in 3T3-L1 adipocytes (3H-labelled 2-deoxyglucose); assay type: cell-based
Procedure: The effect of the compounds on baseline or insulin-stimulated glucose uptake was evaluated, using the model of glucose uptake in 3T3-L1 adipocytes.
Adipose tissue is the target of glucose metabolism in vivo. The sensitivity for insulin and availability of glucose in adipose tissues are tightly associated with the insulin resistance. The transportation of glucose into adipocytes is a rate-limiting step for the glucose metabolism, and also an important indicator for evaluating the sensitivity for insulin in adipose tissue. 3T3-L1 is a kind of pre-adipocyte, and can become adipocyte after differentiated completely. Therefore, 3T3-L1 is a desirable model for the glucose transport.
Pre-adipocyte, 3T3-L1 was induced to differentiate under certain conditions. After 3T3-L1 differentiated into adipocytes, the compounds of interest with different concentrations and DMSO (used as control) can be added and incubated with the adipocytes for different periods, then the glucose uptake could be determined. For evaluating the ability for a compound to stimulate glucose uptake, the baseline and insulin-induced glucose uptake were determined, and the increase in baseline and insulin-induced glucose uptake upon treatment of the compounds as compared with control group (with 0.1% DMSO) is calculated, based on the ^3H-labelled 2-deoxyglucose inside the cells.
3T3-L1 cells purchased from Karolinska Institute (Sweden) were cultured in DMEM medium containing 10% fetal calf serum at 37° C., under 5% CO2. The cells were passaged every 3-4 days. The cells were inoculated into 12-well plate. Upon confluence, culture medium containing 0.5 mM 3-isobutyl-1-methylxanthine, 0.25 μM dexamethasone and 5 μg/ml insulin was added and cultured for 3 days. Then, the culture medium was replaced by a medium containing 5 μg/ml insulin and further cultured for 3 days. The insulin was removed, and the cells had differentiated completely into mature adipocytes after 2 days which could be used to determine the glucose uptake.
23 compounds chosen by the inventors were added into the culture medium of adipocytes in a dose of 10 μM. After incubation for 2 h, the effect of the compounds on glucose uptake in 3T3-L1 cells was observed. Culture medium without compounds was used as negative control. The control group only supplemented with insulin and the experiment group supplemented with compounds plus insulin were also employed to observe the effect of the compounds on glucose uptake.

[2] = Properties of psoromic acid (solubility, acidity, stability); assay type: physicochemical
Procedure: As a preferred embodiment of the present invention, the compound of the present invention is psoromic acid, F7, a white needle crystal, which is odorless, faintly bitter, with melting point of 265-266° C.

[3] = system: ob/ob mice; test: Hypoglycemic effect of compound F7, fasting blood glucose, 3 weeks; assay type: in vivo; conditions: oral 50 mg/kg once daily
Procedure: Genetic spontaneous diabetes ob/ob mice were purchased from Jackson (USA), and maintained in a SPF facility (temperature: 22-24° C., humidity: 45-80%, illumination: 150-300 Lx, 12/12-hour light/dark cycle). Fasting blood glucose was determined for 3 days continuously when the mice were 7 weeks old. The mice were grouped into the treatment group and the control group (8 animals per group) according to the results determined. The two groups were administered orally with compound F7 (50 mg/kg) and a solution of 0.1% Tween 80 respectively, once daily for 3 weeks. Fasting Blood Glucose levels of mice were measured regularly.

[4] = system: AMP-Activated Protein Kinase (AMPK); test: Phosphorylation of AMPK in HepG2 cell (Western blot); assay type: cell-based, Human; conditions: HepG2, 50 uM, 5 minutes, P<0.01 or P<0.05
Procedure: Human hepatoma carcinoma cell strain (HepG2, purchased from the cell bank of Shanghai Institute of Cell Biology of Chinese Academy) was used. The Human hepatoma carcinoma cells were passaged by 0.1% pancreatin/0.02% EDTA digestion, and cultured in a incubator at 37° C. using MEM culture medium containing 10% FBS, under 5% CO2/95%.
HepG2 cells were cultured in 6-well plates for 48 hours until 70%-80% confluence. Serum starvation was started by changing medium with MEM containing 0.5% BSA. After starvation for 6 hours, cells were treated with the compounds (final concentration of 50 uM, containing 0.25% DMSO) for 5 minutes. The culture medium was discarded, and cells were harvested and washed for twice with pre-cooled PBS. The washing liquid was discarded, and any residual PBS was blotted dry. DMSO without heptacyclic compounds was used as control.
Extraction of total cellular protein: 150 μl/well homogenizing buffer (137 mM NaCl, 2.7 mM KCl, 1 mM MgCl2, 0.5 mM Na3VO4, 1% Triton X-100, 10% Glycerol, 20 mM Tris-HCl pH 7.8, 1 ug/ml Leupeptin, 0.2 mM PMSF, 10 mM NaF, 1 ug/ml Aprotinin, 1 mM EDTA, 1 mM DTT, 5 mM Sodium pyrophosphate, 1 mM Benzamidine) was added. Cells were collected into a 1.5 ml centrifuge tube using cell scraper. Cells were homogenized using sonicator (5 W of power) for 2 times (3 seconds per time), and shaken on a shaker for 1 hour. Supernatant (i.e., total cellular protein) was collected by centrifuging at 14000 rpm for 15 min at 4° C., and stored at −70° C. until use. After the protein concentration was determined by Bradford method, the supernatant was formulated as the loading sample with final concentration of 0.6 mg/ml. The whole preparation process was performed at 4° C.
Protein Electrophoresis: After being treated at 95° C. for 5 min, the loading sample was loaded (15 μg protein/lane). The protein was separated on 7.5% SDS-acrylamide gel for 1-2 hours under the voltage of 80-120 V.
Electrotransferring the protein and blocking the membrane: After electrophoresis was finished, the protein was transferred to PVDF membrane using semi-dry transferring slot based on 0.8 mA/cm^2 membrane area under the electric current of 80 mA for 2 hours. After that, the membrane was shaken for 2 hours with 7.5% skim milk/TTBS to block the membrane.
Antigen-antibody reaction: After the blocking process was finished, the membrane was incubated with primary antibody (antibody against phosphorylated ACC (P-ACC) and antibody against phosphorylated AMPK (P-AMPK), all purchased from Cell signaling (USA), with the working concentration of 1:1000) overnight at 4° C. The membrane was removed, and the primary antibody was recovered. The membrane was washed 5 times, each for 10 min in TTBS. The membrane was shaken for 2 hours with the secondary antibody (horseradish peroxidase-conjugated goat-anti-rabbit IgG antibody, purchased from Bio-rad (USA), with the working concentration of 1:5000) at room temperature. The secondary antibody was discarded. The membrane was washed 5 times, each for 10 min in TTBS in order to remove the unbound secondary antibody.
ECL exposure and development: Luminescent agents, ECL 1, 2, were mixed homogeneously, and incubated with the membrane for 3-5 min. The membrane was removed, wrapped in preservative film, and transferred into dark room for exposure. After exposure with X-film, the film was developed, washed, recorded and conserved.
Semi-quantitative analysis was performed through optical density scan using computer image analysis system. Grey level of the protein expression was calculated. The target grey level was divided by the grey level of internal standard, and a histogram was plotted, taking the normal group as 1 unit.

## COc1cc(C(=O)O)c2c(c1C)OC(=O)c1c(C)cc(O)c(C=O)c1O2 [Compound F7, 4-Formyl-3-hydroxy-8-methoxy-1,9-dimethyl-11-oxo-11H-dibenzo[b,e][1,4]dioxepine-6-carboxylic acid]
[1]; 10 μM, 2 h incubation, with insulin, relative to control without insulin
  Glucose uptake, Mean, Compound + Insulin Group (Control Group = 1.000): 3.788
[1]; Mus musculus, 3T3-L1, 2 h incubation, baseline (without insulin), relative to control, read-out: Glucose uptake, Mean, Compound Group (Control Group = 1.000)
  fold induction at 10 µM: 1.19
[2]; DMSO, ethanol, acetone and ethyl acetate
  Solubility in organic solvents: soluble in organic solvents
[2]; in water
  pH (acidic): 3-4
[2]; room temperature
  Stability: stable at room temperature
[2]; water
  Solubility in water: slightly soluble in water
[3]; 0 day
  Fasting Blood Glucose: 14.0 ± 1.8 mM
[3]; 4 day
  Fasting Blood Glucose: 11.3 ± 2.5 mM
[3]; 8 day
  Fasting Blood Glucose: 11.1 ± 2.0 mM
[3]; 11 day
  Fasting Blood Glucose: 8.8 ± 1.5 mM
[3]; 15 day
  Fasting Blood Glucose: 8.5 ± 2.5 mM
[3]; 21 day, 50 mg/kg
  Fasting Blood Glucose: 7.4 mM and 7.4 ± 1.3 mM
[3]; day 15 after administration
  Reduction of fasting blood glucose: 42%
[4]
  Level of phosphorylation for AMPK protein versus DMSO control: significant up-regulation; also recorded: increased significantly
